The record followed here is US8206983B2, “In vitro methods for the induction and maintenance of plant cell lines as single suspension cells with intact cell walls” (Dow AgroSciences, LLC., priority 2006, dated 2012).

Series [1] deals with BY2 cells. Kind of series: Single cell production by MTI in BY2 cells in glycerol medium. Conditions: glycerol as total carbon source. In kind it is cell-based, tobacco. As to the method:
The effects of Microtubule inhibitors (MTI) on tobacco cell growth in suspension culture were examined. Day seven stationary phase cells (1 ml) were transferred to medium (50 ml) in 250 ml shake flasks (Bokros et al., 1993) containing different concentrations (25 to 1000 nM) of MTI and were grown in cultures for 7 days in dark at 25° C. Both the control and MTI-containing flasks contained a final concentration of 0.5-0.1% (v/v) DMSO. The growth of these chemicals was evaluated in EP12 medium for BY2 cells and NT1B medium for BTI-NT1 cells were the carbon source is substituted with 3% glycerol. The response of these cells was compared with the same medium composition but with 3% sucrose as the Carbon source.

The test system of series [2] is JTNT1 single cells. In words: Cytological characterization of JTNT1 single cells (nucleus, cell wall). The series is classed as cell-based, tobacco. As to the method:
JTNT1 Tobacco single cell initiation and sample collection. JTNT1 Tobacco single cells were initiated in two different media, NT1B with 3% sucrose (NT1B-Suc) and NT1B with 3% glycerol (NT1B-Gly) in 3.5 day culture cycle. […] The flasks were closed with a foam stopper and cultured on a orbital shaker at 130 rpm in dark at 25-28° C. The cultures were sub cultured every 3.5 days up to a period of 14 days. Four samples (Suc/Gly grown cells and the control cultures in Suc/Gly media with 0.2% DMSO) of the cultures were harvested every 3.5 days by spinning the suspension at 3000 rpm for 5 minutes. The samples were immediately lyophilized to prevent any cell oxidation to minimize any deleterious effect on the samples introduced post harvest. Single cells were stained with Hoechst nuclear stain for an hour and observed under scopes for any nuclear anomaly up to two culture cycles.
Cell viability and Cell wall. Established JTNT1 single cells were used to stain with FUN1 (F-7030, Molecular Probes, Invitrogen Inc) cell stain which is used for viability test in yeast, and this contains two color fluorescent probes. The third one, Calcofluor White M2R which stains cell wall, was used to stain the cells. For JTNT1 single cells, […] of FUN1 stain is added and the culture was incubated at room temperature for 20 mins 1 mL fresh culture media was added to wash the excess stain and centrifuged at 3000 rpm; the supernantant was discarded. The cells were examined and imaged on Zeiss ApoTome microscope.
Nucleus. Single cells were stained with Hoechst nuclear stain for an hour and observed on Zeiss Apo Tome for any nuclear anomaly up to two culture cycles. Crystal violet stain was also used as a live nuclear stain for observing nuclear structure for ploidy characterization

The subject of series [3] is PH suspension cells. Kind of series: Recovery of Petite Havana suspension cells after DAS-PMTI-1 treatment. The note with it: after 7 days at 0.5 mM; after 2 weeks. In kind it is cell-based, tobacco. An excerpt: BY2 suspension-cultured cells were obtained from Japan tobacco and maintained in LSBY2 medium in a 7 day cycle. Jimsonweed suspension and Pettite Havana tobacco suspensions were initiated from callus initiated at DAS and Xanthi suspensions were procured as a sample from Professor Jack Widholm from UIUC, IL. JT-NT1 suspension cells, obtained from Washington University that are maintained in NT1B medium in 7 day cycle were used only for the pectin degradation enzyme study to separate the cells into single cells. The cells were cultured in shake flasks at 25-28° C. in dark on orbital shakers at 150 rpm. […] The NT-1 cell line is widely used and readily available; though, any tobacco suspension cell line is consistent with the practice of the invention. […]
Cell expansion and separation were observed by light microscopy (with Nomarski and dark field optics). Spherical cells and single cells were counted by using a hemacytometer to determine the degree of cell expansion and separation, respectively. Cell numbers in aggregates were determined by treating with 5% (wt/vol) chromium trioxide for 16 hr and counting cells (Henshaw et. al, 1966). Cell viability was determined by staining cells (Yokoyama et. al, 1997) with fluorescein diacetate (FDA) and propidium iodide (PI) using a fluorescent microscope (Zeiss Photomicroscope). […]

Series [4] deals with JM cells. Kind of series: Effects of colchicine on growth and cell separation of Jimson weed suspension cells. In kind it is cell-based. An excerpt: BY2 suspension-cultured cells were obtained from Japan tobacco and maintained in LSBY2 medium in a 7 day cycle. Jimsonweed suspension and Pettite Havana tobacco suspensions were initiated from callus initiated at DAS and Xanthi suspensions were procured as a sample from Professor Jack Widholm from UIUC, IL. JT-NT1 suspension cells, obtained from Washington University that are maintained in NT1B medium in 7 day cycle were used only for the pectin degradation enzyme study to separate the cells into single cells. The cells were cultured in shake flasks at 25-28° C. in dark on orbital shakers at 150 rpm. […] Stock concentrations of both the tubulin polymerization inhibitors used in this investigation were dissolved in DMSO to prepare a 0.5 M stock solution. The concentration tested for the pectinase and pectolyase enzymes were in the range of 0.0005% to 0.005%. The tobacco suspension cell lines NT-1 and BY-2, for example, are suitable for the practice of the present invention. […] The NT-1 cell line is widely used and readily available; though, any tobacco suspension cell line is consistent with the practice of the invention. […]
Cell expansion and separation were observed by light microscopy (with Nomarski and dark field optics). Spherical cells and single cells were counted by using a hemacytometer to determine the degree of cell expansion and separation, respectively. Cell numbers in aggregates were determined by treating with 5% (wt/vol) chromium trioxide for 16 hr and counting cells (Henshaw et. al, 1966). Cell viability was determined by staining cells (Yokoyama et. al, 1997) with fluorescein diacetate (FDA) and propidium iodide (PI) using a fluorescent microscope (Zeiss Photomicroscope). […] Calcafluor obtained from Sigma, which is a specific fluorescent dye for cellulose is used in this study, and the cellulose-Calcafluor complexing was observed by fluorescence microscopy (Zeiss Photomicroscope). […]

Regarding `CCOC(=O)COc1nn(-c2ccccc2)c(-c2ccccc2)c1Cl` [DAS-PMTI-1], in series [1], the “concentration effective for the production of single cells” value was 5 to 25 nM. Further, in series [2] (1 uM, 3.5 d cultures), the “nuclear organization of single cells” value is listed as “single nucleus”. Moreover, the nuclear ploidy entry in series [2] (14 days of continuous treatments) was “low or no nuclear ploidy percentage”. For the same molecule, the “recovery after subculture in the absence of the compound” value in series [3] is given as “recovered as single cells with a low frequency”.

As to `COc1cc2c(c(OC)c1OC)-c1ccc(OC)c(=O)cc1[C@@H](NC(C)=O)CC2` [Colchicine], the cell growth entry in series [4] (0.5 mM) is “drastically affected”. The “cell viability (FDA and PI)” value in series [4] (1 mM, 7 d) is recorded as “high viability”. The single suspension cells entry in series [4] (1 mM, 7 days) is recorded as “high degree of single suspension cells”.
